Data from patent publication US9334299B2, “Water-soluble camptothecin derivative, pharmaceutical composition and use thereof” (Hunan Fangshenghuamei Medical Tech. Co. Ltd., priority 2011, dated 2016).
Entries after “also recorded” stand apart in the source; their conditions may differ. Where two headings read alike, the source gives them in different places.

Columns and labels:
Type in all cases: cell-based
[1] = system: H146 (small cell lung cancer) cells; test: CellTiter-Glo cell viability assay, H146 cells; conditions: for cell killing / dose-dependent cell death in H146 cells, result in words: compared with CPT, floxuridine, etoposide (FIGS. 4-5, Table 3); for viability at 0.1 µM / viability at 1 µM / viability at 10 µM: Homo sapiens, read-out: H146 cell viability after 48 hours of treatment
Excerpt: (§1) To determine the ability of Compound Dix-905 (also referred as Compound 905) to kill cancer cells, we performed a cell viability assay via CellTiter-Glo kit (Promega) using various cell lines. The kit measures the ATP levels via an enzymatic Luciferase assay. Viable cells, having normal metabolic rates and producing normal levels of ATP, will is have a high turnover of Luciferase substrates, which requires ATP for the enzymatic reaction and emits luminescent signals. By contrast, dying cells will have lower outcome of luminescent signals since their metabolic functions are diminished. The emitted luminescent signals will then be captured by a luminometer.
(§2) To perform the viability assay, small cell lung cancer cells (ATCC catalog No. H146), breast cancer cells (ATCC catalog No. MDAMB231) or colon cancer cells (ATCC catalog No. HCT116) were seeded in 96 wells and treated via Compound Dix-905 and other anti-cancer drugs for a time period of 24, 48, 72 hours. At each respective time point, cells were mixed with Cell Titer Glow reagents for 1 h and evaluated for luminescent signals.
In the “CPT” group, the H146 (small cell lung cancer) cells were treated with CPT (dissolved in DMSO) in 4 concentrations (0, 0.1, 1.0, 10 μM, respectively) for 48 hours; In the Dix-902, Dix-904 and Dix-906 groups, H146 (small cell lung cancer) cells were treated respectively with the corresponding compounds (dissolved in a saline solution) in 4 concentrations (0, 0.1, 1.0, 10 μM, respectively) for 48 hours.

[2] = system: HCT116 (colon cancer) cells; test: CellTiter-Glo cell viability assay, HCT116 cells; conditions: for cell killing / dose-dependent cell death in HCT116 cells, result in words: compared with CPT, 5-FU, Etoposide (FIGS. 7-8, Table 5); for viability at 0.1 µM / viability at 1 µM / viability at 10 µM: Homo sapiens, HCT-116, 48 hours, read-out: HCT116 cell viability after 48 hours of treatment
Excerpt: as §1, §2
In the “CPT” group, the is HCT116 cells were treated with CPT (dissolved in DMSO) in 4 concentrations (0, 0.1, 1.0, 10 μM, respectively) for 48 hours. In the Dix-902, Dix-904 and Dix-906 groups, HCT116 cells were treated respectively with the corresponding compounds (dissolved in a saline solution) in 4 concentrations (0, 0.1, 1.0, 10 μM, respectively) for 48 hours.

H1693 cells = test: Cell viability (cell killing) assay, H1693 cells; conditions: compared with CPT, floxuridine, etoposide (FIGS. 1-2)
[3] = system: Caspase 3/7 in H1693 cells; test: Caspase-Glo 3/7 caspase activation assay, H1693 cells; conditions: FIG. 3
Method: (§3) For caspase activation, similar assays could be performed using the Caspase-Glo 3/7kit from Promega after cells were treated with respective agents for various time points. The mechanism of Caspase 3/7 Glow assay is by using Caspase 3/7 substrate fused with Luciferase substrate, which could be cleaved by activated Caspase 3/7. The released Luciferase substrate then undergoes an enzymatic reaction and emits luminescent signals. In contrast to the viability assay, the limiting step for this assay is caspase activation. Dying cells bearing the activated Casapses will have a high readout of luminescent signals in a luminometer.

[4] = system: Caspase 3/7 in H146 cells; test: Caspase-Glo 3/7 caspase activation assay, H146 cells; conditions: FIG. 6
Method: as §3

[5] = system: MDAMB231 (breast cancer) cells; test: CellTiter-Glo cell viability assay, MDAMB231 cells; conditions: Homo sapiens, read-out: MDAMB231 cell viability after 48 hours of treatment
Excerpt: as §1, §2
In the “CPT” group, the MDAMB231 (breast cancer) cells were treated with CPT (dissolved in DMSO) in 4 concentrations (0, 0.1, 1.0, 10 μM, respectively) for 48 hours. In the Dix-902, Dix-904 and Dix-906 groups, MDAMB231 (breast cancer) cells were treated respectively with the corresponding compounds (dissolved in a saline solution) in 4 concentrations (0, 0.1, 1.0, 10 μM, respectively) for 48 hours.

SMILES | cell killing / dose-dependent cell death in H146 cells, result in words [1] | cell killing / dose-dependent cell death in HCT116 cells, result in words [2] | viability at 0.1 µM ([1]; NCI-H146, 0.1 μM, 48 hours) | viability at 1 µM ([1]; NCI-H146, 1.0 μM, 48 hours) | viability at 10 µM ([1]; NCI-H146, 10 μM, 48 hours) | viability at 0.1 µM ([5]; MDA-MB-231, 0.1 μM, 48 hours) | viability at 1 µM ([5]; MDA-MB-231, 1.0 μM, 48 hours) | viability at 10 µM ([5]; MDA-MB-231, 10 μM, 48 hours) | viability at 0.1 µM [2] | viability at 1 µM [2] | viability at 10 µM [2] | viability at 0.1 µM ([1]; NCI-H146, 48 h) | viability at 1 µM ([1]; NCI-H146, 48 h) | viability at 10 µM ([1]; NCI-H146, 48 h) | viability at 0.1 µM ([5]; MDA-MB-231, 48 h) | viability at 1 µM ([5]; MDA-MB-231, 48 h) | viability at 10 µM ([5]; MDA-MB-231, 48 h) | further results
CC[C@@]1(OP(=O)(O)OC[C@H]2O[C@@H](n3cc(F)c(=O)[nH]c3=O)C[C@@H]2O)C(=O)OCc2c1cc1n(c2=O)Cc2cc3ccccc3nc2-1 [Dix-905] | cell killing response in H146 better than that of CPT; also recorded: more effective cell killing in H146 than that of CPT, floxuridine, and etoposide | Dose-dependent cell death |  |  |  |  |  |  |  |  |  |  |  |  |  |  |  | cell killing / dose-dependent cell death in HCT116 cells, result in words ([2]; listed as DIX-905): more effective in cell killing than that of CPT, 5-FU and Etoposide; cell killing in H1693 cells, result in words (H1693 cells): cell killing response better than that of CPT; also recorded: more effective cell killing in H1693 than that of CPT, floxuridine, and etoposide; cell death in H1693 via Caspase activation (apoptotic pathway) [3]: time- and dose-dependent cell death; cell death in H146 via Caspase activation (apoptotic pathway) [4]: time- and dose-dependent cell death
CC[C@@]1(OP(=O)(O)OC[C@H]2O[C@@H](n3cc(C)c(=O)[nH]c3=O)C[C@@H]2O)C(=O)OCc2c1cc1n(c2=O)Cc2cc3ccccc3nc2-1 [Dix-906] | similarly to or even slightly better than that of CPT | higher than that CPT | 64% | 45% | 21% | 14% | 4% | 3% | 90% | 71% | 8% |  |  |  |  |  |  | 
CC[C@@]1(O)C(=O)OCc2c1cc1n(c2=O)Cc2cc3ccccc3nc2-1 [CPT, Camptothecin] |  | Dose-dependent cell death | 65% | 51% | 24% | 13% | 5% | 3% | 96% | 76% | 11% |  |  |  |  |  |  | 
CC[C@@]1(OP(=O)(O)OC[C@H]2O[C@@H](n3ccc(N)nc3=O)C[C@@H]2O)C(=O)OCc2c1cc1n(c2=O)Cc2cc3ccccc3nc2-1 [Dix-902] | similarly to or even slightly better than that of CPT | higher than that CPT |  |  |  |  |  |  | 87% | 68% | 9% | 66% | 43% | 20% | 15% | 4% | 2% | 
CC[C@@]1(OP(=O)(O)OC[C@H]2O[C@@H](n3cnc4c(N)ncnc43)C[C@@H]2O)C(=O)OCc2c1cc1n(c2=O)Cc2cc3ccccc3nc2-1 [Dix-904] | similarly to or even slightly better than that of CPT | higher than that CPT |  |  |  |  |  |  | 95% | 70% | 10% | 67% | 44% | 19% | 13% | 3% | 1% | 
